Laboratory results taken from patent US5482971A, “Beta3 -adrenergic agents and their use in pharmaceutical compositions” (American Cyanamid Company, priority 1993, dated 1996).

Tests used:
[1] = molecular target: T1, beta3 -adrenergic receptor (Rattus norvegicus, UniProt P26255); assay: β3-effect: stimulation of adipocyte lipolysis (rat epididymal fat pad cells, glycerol release); type: cell-based; conditions: rat epididymal adipocytes, 37° C., 30 minutes; concentration giving 50% of the maximum rate of lipolysis of that compound
T1 construct: Rat epididymal fat pads are excised and placed in 0.9% saline; from tissue; host or cells: collagenase-isolated adipocytes from rat epididymal fat pads
T1 sequence (P26255 whole entry): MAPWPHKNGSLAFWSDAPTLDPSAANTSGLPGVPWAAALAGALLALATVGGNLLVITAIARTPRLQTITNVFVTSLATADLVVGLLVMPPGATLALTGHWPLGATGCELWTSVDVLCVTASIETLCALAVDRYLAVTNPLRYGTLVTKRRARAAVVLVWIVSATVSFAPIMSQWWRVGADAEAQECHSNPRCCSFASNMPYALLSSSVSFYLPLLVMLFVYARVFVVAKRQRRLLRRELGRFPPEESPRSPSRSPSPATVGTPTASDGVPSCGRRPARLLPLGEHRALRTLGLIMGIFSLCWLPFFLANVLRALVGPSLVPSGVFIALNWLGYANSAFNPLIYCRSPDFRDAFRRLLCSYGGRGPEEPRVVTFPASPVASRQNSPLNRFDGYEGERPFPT
Experimental: (§1) Selectivity of a compound is determined using the following procedures.
The β3 -effect of the compounds is determined by their ability to stimulate adipocyte lipolysis. Rat epididymal fat pads are excised and placed in 0.9% saline. Four grams of tissue is transferred to a flask with 20 ml of aerated Krebs-Henseleit bicarbonate (KHB) buffer containing 3% fatty acid-free bovine serum albumin to which 75 mg of crude bacterial collagenase (Worthington) has been added. The tissue is incubated for about 45 minutes at 37° C. with gentle shaking. The cells are then washed three times with two volumes of KHB buffer, filtered through two layers of gauze, and brought to a final volume of 80 ml with KHB buffer. One ml aliquots of the cell suspension is added to plastic test tubes containing the appropriate additions of vehicle or compound. The cells are gassed for 1 minute with 95%O2 -5%CO2, capped, and incubated at 37° C. with continuous shaking for a total of 30 minutes. The reaction is stopped by adding 0.1 ml of 30% perchloric acid and 0.1 ml of chloroform. […] The amount of glycerol generated from the hydrolysis of endogenous triglycerides is determined in a coupled-enzyme spectrophotometric assay. […] The amount of NADH generated, which is proportional to the amount of glycerol, is determined by the increase in absorbance at 340 nm. […]

[2] = molecular target: T2, beta1 -adrenergic receptor (Rattus norvegicus, UniProt P18090); assay: Heart binding: β1-effect, membranes from rat heart, [125I]iodocyanopindolol; conditions: incubation 1 hour
T2 construct: membranes from rat heart; from tissue; host or cells: rat heart membranes
T2 sequence (P18090 whole entry): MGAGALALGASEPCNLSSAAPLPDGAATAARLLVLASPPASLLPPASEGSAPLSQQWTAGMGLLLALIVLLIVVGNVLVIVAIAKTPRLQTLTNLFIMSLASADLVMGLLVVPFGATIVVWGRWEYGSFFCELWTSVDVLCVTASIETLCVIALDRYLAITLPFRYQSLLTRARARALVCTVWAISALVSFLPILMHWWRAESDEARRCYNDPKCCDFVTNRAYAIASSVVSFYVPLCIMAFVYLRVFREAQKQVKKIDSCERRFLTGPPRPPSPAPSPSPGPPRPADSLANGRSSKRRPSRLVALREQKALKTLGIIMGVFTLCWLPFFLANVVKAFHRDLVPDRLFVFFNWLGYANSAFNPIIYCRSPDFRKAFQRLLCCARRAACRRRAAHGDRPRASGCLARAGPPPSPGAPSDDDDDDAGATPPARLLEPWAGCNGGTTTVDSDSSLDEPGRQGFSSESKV
Experimental: as §1
(§2) Binding assays for β1 -effect are carried out by the use of membranes from rat heart, and β2 -effect by the use of membranes from rat lung by the method described in Neve, et at., J. Pharmacol. Exp. Ther., 1985, 235, 657-664 with the following exceptions:
(§3) 1. the incubation volume is 0.5 ml,
(§4) 2. the incubation time is 1 hour,
(§5) 3. the radioligand is [^125 I]iodocyanopindolol,
(§6) 4. (-)-isoproterenol (50 μM) is used to define specific binding, and
(§7) 5. the filters are washed at 4° C.

[3] = molecular target: T3, beta2 -adrenergic receptor (Rattus norvegicus, UniProt P10608); assay: Lung binding: β2-effect, membranes from rat lung, [125I]iodocyanopindolol; conditions: incubation 1 hour
T3 construct: membranes from rat lung; from tissue; host or cells: rat lung membranes
T3 sequence (P10608 whole entry): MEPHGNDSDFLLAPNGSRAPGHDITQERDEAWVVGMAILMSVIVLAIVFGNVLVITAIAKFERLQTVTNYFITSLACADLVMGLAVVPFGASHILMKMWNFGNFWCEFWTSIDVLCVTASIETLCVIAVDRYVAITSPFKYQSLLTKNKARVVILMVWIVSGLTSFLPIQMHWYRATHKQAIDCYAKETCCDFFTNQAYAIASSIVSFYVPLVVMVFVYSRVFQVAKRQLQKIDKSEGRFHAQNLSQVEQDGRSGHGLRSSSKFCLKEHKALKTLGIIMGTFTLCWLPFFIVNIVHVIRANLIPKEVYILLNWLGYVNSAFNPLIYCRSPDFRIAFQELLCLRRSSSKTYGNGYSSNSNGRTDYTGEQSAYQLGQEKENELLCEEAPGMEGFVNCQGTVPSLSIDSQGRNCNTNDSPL
Experimental: as §1, §2, §3, §4, §5, §6, §7

**Q.** How did the EC50 [1] turn out when `C[C@H](CCc1ccc2c(c1)OC(C(=O)O)(C(=O)O)O2)NC[C@H](O)c1cccc(Cl)c1` [Example 3, Disodium (R,R)-5-((3-(2-(3-chlorophenyl)-2-hydroxyethyl)amino)butyl)-1,3-benzodioxole-2,2-dicarboxylate] was run?
**A.** Its EC50 is 17 nM.

**Q.** What about the IC50 [2] of the same compound?
**A.** The IC50 was 19000 nM.

**Q.** What about the IC50 [3] of the same compound?
**A.** Its IC50 is 20000 nM.
